Reference: US20210196779A1, “Compositions and Methods for Treating Steroid Hormone-Related Diseases or Disorders” (YALE UNIVERSITY, priority 2018, published 2021)
Read-outs that look alike come from different tables or passages of the source.

Key:
Type in all cases: cell-based
beta-catenin (b-cat) [1] = test: Western blot, 22RV1 cells, beta-catenin; conditions: presence or absence of DHT, 24 h
Description: (§1) Western blot analysis was used to determine the protein expression using protein specific antibodies.
(§2) Total cell lysis was conducted using 2×SDS sample buffer (62.5 mM Tris-HCl, 2% SDS, 10% glycerol, 50 mM DTT, and 0.05% bromophenol blue). The samples were sonicated for 10 s to shear DNA. Cell nuclei were isolated using Tris buffer saline with 0.4% NP40. Cell extracts were then electrophoresed through 10% SDS-polyacrylamide gels and transferred to 0.2 μm nitrocellulose membranes (Bio-Rad Laboratories, Hercules, Calif.) with a Miniprotein II transferring apparatus (Bio-Rad). The membranes were blocked and probed in TBS-T buffer (1×TBS buffer, 0.2% Tween 20) containing 5% non-fat milk. Monoclonal rabbit anti-AR (1:5000), was used to detect androgen receptor (Abcam #133273), Glucocorticoid Receptor (D8H2) XP® Rabbit mAb #3660, ERa Antibody (F-10): sc-8002, BRD4 (E2A7X) Rabbit mAb #13440, Brd2 (D89B4) Rabbit mAb #5848, PARP (46D11) Rabbit mAb #9532, Acetyl-Histone H3 (Lys27) (D5E4) XP® Rabbit mAb #8173 and a monoclonal actin antibody diluted 1:2500 (Sigma, St. Louis, Mo.) was used to detect β-actin as the internal control to confirm equal protein loading. […] Enhanced chemiluminescence reagents (Perkin-Elmer Life Science Products, Boston, Mass.) were used to visualize the immunoreactive bands and the densities of protein bands were scanned analyzed using ImageJ software from the NIH.

estrogen receptor ERa = target: T1, estrogen receptor ERa (Homo sapiens, UniProt P03372); test: Western blot, MCF7 cells, ERa; conditions: presence or absence of E2, 24 h
T1 construct: endogenous in cells; host or cells: MCF7
Description: as §1, §2

beta-catenin (b-cat) [2] = test: Western blot, MCF7 cells, beta-catenin; conditions: presence or absence of E2, 24 h
Description: as §1, §2

cyclin D1 (cycD1) [3] = test: Western blot, MCF7 cells, cyclin D1; conditions: presence or absence of E2, 24 h
Description: as §1, §2

GR [4] = test: Western blot, 22RV1 cells, GR; conditions: presence or absence of DHT, 24 h
Description: as §1, §2

cyclin D1 (cycD1) [5] = test: Western blot, 22RV1 cells, cyclin D1; conditions: presence or absence of DHT, 24 h
Description: as §1, §2

estrogen receptor ERb = test: Western blot, MCF7 cells, ERb; conditions: presence or absence of E2, 24 h
Description: as §1, §2

AR [6] = test: Western blot, 22RV1 cells, AR; conditions: presence or absence of DHT, 24 h
Description: as §1, §2

22Rv1 cells = test: Cell growth assay, 22Rv1 prostate cancer cells; conditions: Homo sapiens, 22Rv1, 96 h, 4 days, standardized to equivalent concentration of Y1830, read-out: IC50 for the inhibition of growth
Description: (§3) 22RV1 or LNCaP prostate cancer cells were grown in corning T75 cell culture flasks in RPMI1640 medium supplemented with 5% FBS, 50 μg/ml Kanamycin in a 37° C., 5% CO2 incubator.
(§4) 20,000 cells in 1 ml of medium (phenol red free RPMI1640, 5% charcoal-dialysis FBS, 50 μg/ml Kanamyacin) were seeded per well of a 24-well plate and incubated in a 37° C. incubator with 5% CO2 overnight. Different concentrations of herbal extract were added to each well in order to have final concentrations from 50 μg/ml to 500 μg/ml. […] For glucocorticoid receptor overexpressed LNCaP cells, dexamethasone (50 nM) was used to stimulate glucocorticoid receptor activity. For all breast cancer cells, E2 (10 nM) was used to stimulate ER activity. Control medium without any steroid hormone was used as a control setting. After 4 days of incubation, cells were fixed and stained for 2 h with 0.5% methylene blue in 50% ethanol, followed by washing with tap water to remove unbound dye. Plates were air dried and then cells were dissolved in 1% sarkosyl (sodium lauroyl sarcosinate) by shaking at room temperature for 3 h. […] All experiments were performed in triplicate wells and were repeated at least three times.

[7] = test system: progesterone receptor PR (a and b); test: Western blot, MCF7 cells, PR; conditions: presence or absence of E2, 24 h
Description: as §1, §2

[8] = test system: LNCaP-GR (GR overexpressing) cells; test: Cell growth assay, GR overexpressing LNCaP cells; conditions: for IC50: Homo sapiens, LNCaP, 96 h, 4 days, standardized to equivalent concentration of Y1830, read-out: IC50 for the inhibition of growth
Description: as §4

AR [9] = target: T2, AR (Homo sapiens, UniProt P10275); test: Western blot, MCF7 cells, AR; conditions: presence or absence of E2, 24 h
T2 construct: endogenous in cells; host or cells: MCF7
Description: as §1, §2

LNCaP cells = test: Cell growth assay, LNCaP prostate cancer cells; conditions: for IC50: Homo sapiens, LNCaP, 96 h, 4 days, standardized to equivalent concentration of Y1830, read-out: IC50 for the inhibition of growth
Description: as §3, §4

androgen receptor (AR) = test: PSA-luciferase reporter assay, DHT induced, 22RV1 cells; conditions: equivalent doses, 22RV1 cells in the presence of DHT
Description: 22RV1 or LNCaP prostate cancer cells were used in the screening study. 22RV1 or LNCaP cell lines were stably transfected with PSA promoter-PGL4.2 luciferase reporter. DHT (25 nM) was used to stimulate androgen receptor activity for 24 h.
Reporter cells were treated with herbal extracts at 30, 100, 300, and 1000 μg/ml for 24 h in a 37° C.-CO2 incubator. DHT (25 nM) was used to stimulate androgen receptor activity. Dexamethasone (50 nM) was used to stimulate glucocorticoid receptor activity Cells were lysed using luciferase lysis buffer after which luciferase buffer with luciferin was added to generate luminescence. Luminescence was recorded using a luminescence microplate reader.

AR-V (truncated AR) = test: Western blot, 22RV1 cells, AR-V; conditions: presence or absence of DHT, 24 h
Description: as §1, §2

GR [10] = test: Western blot, MCF7 cells, GR; conditions: 24 h
Description: as §1, §2

PC3 cells = test: Cell growth assay, PC3 cells; conditions: for IC50: Homo sapiens, PC-3, 96 h, 4 days, standardized to equivalent concentration of Y1830, read-out: IC50 for the inhibition of growth
Description: as §4

Brd4 = test: Western blot, MCF7 and 22RV1 cells, Brd4; conditions: MCF7 (with or without E2) or 22RV1 (with or without DHT), 24 h
Description: Western blot analysis was used to determine the protein expression using protein specific antibodies. β-actin or histone 3 was used to normalize protein loading.
Total cell lysis was conducted using 2×SDS sample buffer (62.5 mM Tris-HCl, 2% SDS, 10% glycerol, 50 mM DTT, and 0.05% bromophenol blue). The samples were sonicated for 10 s to shear DNA. Cell nuclei were isolated using Tris buffer saline with 0.4% NP40. Cell extracts were then electrophoresed through 10% SDS-polyacrylamide gels and transferred to 0.2 μm nitrocellulose membranes (Bio-Rad Laboratories, Hercules, Calif.) with a Miniprotein II transferring apparatus (Bio-Rad). The membranes were blocked and probed in TBS-T buffer (1×TBS buffer, 0.2% Tween 20) containing 5% non-fat milk. […] Enhanced chemiluminescence reagents (Perkin-Elmer Life Science Products, Boston, Mass.) were used to visualize the immunoreactive bands and the densities of protein bands were scanned analyzed using ImageJ software from the NIH.

T2 sequence (P10275 whole entry): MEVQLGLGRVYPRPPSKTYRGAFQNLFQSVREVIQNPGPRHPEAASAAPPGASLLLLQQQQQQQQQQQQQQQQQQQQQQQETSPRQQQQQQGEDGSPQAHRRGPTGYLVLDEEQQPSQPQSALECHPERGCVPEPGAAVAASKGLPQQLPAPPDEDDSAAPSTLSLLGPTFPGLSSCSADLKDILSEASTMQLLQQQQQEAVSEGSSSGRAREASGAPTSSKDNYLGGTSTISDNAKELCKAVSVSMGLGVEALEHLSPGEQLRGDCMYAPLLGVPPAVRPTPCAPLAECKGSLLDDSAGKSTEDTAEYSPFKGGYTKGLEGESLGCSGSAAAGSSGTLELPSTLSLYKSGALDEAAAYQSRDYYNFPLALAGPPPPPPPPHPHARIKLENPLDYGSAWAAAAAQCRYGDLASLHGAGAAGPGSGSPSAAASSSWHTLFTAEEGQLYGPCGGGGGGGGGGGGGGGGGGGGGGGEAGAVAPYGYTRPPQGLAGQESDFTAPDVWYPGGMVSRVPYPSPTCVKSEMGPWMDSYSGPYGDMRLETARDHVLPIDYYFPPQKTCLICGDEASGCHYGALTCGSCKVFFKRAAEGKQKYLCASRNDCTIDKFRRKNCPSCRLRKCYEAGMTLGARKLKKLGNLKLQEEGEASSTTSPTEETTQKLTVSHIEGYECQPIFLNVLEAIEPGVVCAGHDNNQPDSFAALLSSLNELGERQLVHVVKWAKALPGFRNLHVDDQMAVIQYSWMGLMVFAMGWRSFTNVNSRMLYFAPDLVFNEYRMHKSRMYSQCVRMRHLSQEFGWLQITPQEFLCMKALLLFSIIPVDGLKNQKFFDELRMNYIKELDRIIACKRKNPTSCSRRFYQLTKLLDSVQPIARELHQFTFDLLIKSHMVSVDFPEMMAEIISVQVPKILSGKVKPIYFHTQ
T1 sequence (P03372 whole entry): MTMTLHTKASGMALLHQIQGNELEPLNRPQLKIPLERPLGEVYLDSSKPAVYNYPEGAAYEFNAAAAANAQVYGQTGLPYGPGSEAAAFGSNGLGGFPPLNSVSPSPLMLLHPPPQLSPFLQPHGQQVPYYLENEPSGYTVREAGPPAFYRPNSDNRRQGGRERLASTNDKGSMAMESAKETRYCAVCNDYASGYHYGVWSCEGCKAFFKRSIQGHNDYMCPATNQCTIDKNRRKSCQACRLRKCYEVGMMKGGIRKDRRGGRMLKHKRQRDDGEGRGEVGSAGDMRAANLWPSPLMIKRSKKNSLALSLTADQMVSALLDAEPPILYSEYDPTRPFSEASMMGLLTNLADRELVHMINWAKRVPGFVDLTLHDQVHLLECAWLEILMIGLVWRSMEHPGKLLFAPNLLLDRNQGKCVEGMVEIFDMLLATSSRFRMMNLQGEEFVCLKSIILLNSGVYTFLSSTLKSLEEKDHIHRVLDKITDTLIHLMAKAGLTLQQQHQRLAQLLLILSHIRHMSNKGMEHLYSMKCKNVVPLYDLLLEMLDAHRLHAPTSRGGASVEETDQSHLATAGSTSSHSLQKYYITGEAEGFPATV

| SMILES | beta-catenin protein expression (beta-catenin (b-cat) [1]) | ERa protein expression (estrogen receptor ERa) | beta-catenin protein expression (beta-catenin (b-cat) [2]) | cyclin D1 protein expression (cyclin D1 (cycD1) [3]) | GR protein expression (GR [4]) | cyclin D1 protein expression (cyclin D1 (cycD1) [5]) | ERb protein expression (estrogen receptor ERb) | AR protein expression (AR [6]) | IC50 (22Rv1 cells; 22Rv1, no DHT/DEX) [µg/mL] | IC50 (22Rv1 cells; 22Rv1 w/DEX 50 nM) [µg/mL] | IC50 (22Rv1 cells; 22Rv1 w/DHT 25 nM) [µg/mL] | PR (a and b) protein expression [7] | IC50 ([8]; LNCaP-GR w/DEX 50 nM) [µg/mL] | IC50 ([8]; LNCaP-GR w/DHT 2 nM) [µg/mL] | IC50 ([8]; LNCaP-GR, no DHT/DEX) [µg/mL] | AR protein expression (AR [9]) | IC50 (LNCaP cells; LNCaP w/DHT 2 nM) [µg/mL] | IC50 (LNCaP cells; no DHT) [µg/mL] | inhibitory effect on AR mediated transcriptional response (androgen receptor (AR)) | AR-V protein expression (AR-V (truncated AR)) | further results |
| --- | --- | --- | --- | --- | --- | --- | --- | --- | --- | --- | --- | --- | --- | --- | --- | --- | --- | --- | --- | --- | --- |
| Cc1c(OC2OC(CO)C(O)C(O)C2OC2OC(C)C(O)C(O)C2O)cc2c(c1O)C(=O)c1ccc(O)cc1C2=O [RG, 1,3,6-Trihydroxy-2-methyl-9,10-anthracenedione 3-O-[α-L-Rhamnopyranosyl-(1→2)-β-D-glucopyranoside]] | did not have impact | did not have any impact | did not have any impact | did not have any impact | did not have impact | did not have impact | did not have any impact | did not have impact | > 500 | > 500 | > 500 | did not have any impact | > 500 | > 500 | > 500 | did not have any impact | > 500 | > 500 | very weak activity | did not have impact | GR protein expression (GR [10]): did not have any impact; IC50 (PC3 cells; PC3, no DEX): > 500 µg/mL; IC50 (PC3 cells; PC3 w/DEX 50 nM): > 500 µg/mL |
| CC(=O)OCC1OC(Oc2cc3c(c(O)c2C)C(=O)c2ccc(O)cc2C3=O)C(OC2OC(C)C(O)C(O)C2O)C(O)C1O [RGA, 1,3,6-Trihydroxy-2-methyl-9,10-anthracenedione 3-O-[α-L-Rhamnopyranosyl-(1→2)-6-O-acetyl-β-D-glucopyranoside]] | moderate inhibitory effect | downregulate | moderate inhibitory effect | strong inhibitory effects | but not GR | strong inhibitory effect | slightly downregulate | downregulate | 306 | 220 | 253 | downregulate | 60 | 40 | 220 | downregulate | 50 | > 500 | very similar anti-AR activity as the Y1830 water extract | downregulate | Brd4 protein expression (Brd4): decreased; inhibition of LNCaP-GR cell growth (in words) ([8]; in the presence of either DHT or DEX): effectively inhibited; susceptibility of LNCaP cell growth to treatment (in words) (LNCaP cells; in the absence of DHT): not be susceptible; sensitivity of LNCaP cell growth to treatment (in words) (LNCaP cells; in the presence of DHT): more sensitive; GR protein expression (GR [10]): did not inhibited; IC50 (PC3 cells; PC3, no DEX): 146 µg/mL; IC50 (PC3 cells; PC3 w/DEX 50 nM): 320 µg/mL; inhibition of PC3 cell growth (in words) (PC3 cells; with or without DEX): inhibited PC3 cell growth, but less effectively in the presence of DEX |
